Where “and” joins values, the source holds several entries; their conditions need not be identical. Identical values can stand only once. Like-named read-outs stand apart in the source and are kept apart here.
How the values were obtained:
Yohimbin-Toxizität = experiment: Potentiation of yohimbine toxicity in mice (Methode 2); type: in vivo, Maus; conditions: Methode 2, mouse; for LD50, mg/kg p.o.: 1 h before yohimbine hydrochloride 20 mg/kg s.c., deaths after 18 h
Method: Die Toxizität von Yohimbin, einem Blocker präsynaptischer alpha-Rezeptoren, wird durch Antidepressiva potenziert (Literatur R.M. Quinton, Brit. J. Pharmac. 21 , 55-56 (1963)). Männliche Mäuse, NMRI-Stamm, 20-22 g, wurden in Versuchsgruppen zu n = 10 zugeordnet. Das Prüfpräparat wurde in 1 %igem wäßrigen Tylose@-Schleim suspendiert und im Volumen 10 ml/kg oral gegeben. Kontrollen erhielten nur das Vehikel.
Nach einer Vorbehandlungszeit von 1 Stunde erhielten alle Tiere eine allein nicht toxische Dosis von Yohimbin-Hydrochlorid, 20 mg/kg subkutan. Die verstorbenen Tiere wurden 18 Stunden nach dieser Behandlung ermittelt. (Berechnung der LDso mit Probit-Analyse).

Stereotypien = experiment: Induction of stereotypies in rats (Methode 3); type: in vivo; conditions: Methode 3, rat, p.o.; dose up to which no stereotypies were seen
From the text: Die Versuche wurden an Wistar-Ratten, männlich, 130-140 g durchgeführt. Die Stereotypien wurden in den ersten beiden Stunden nach Substanzgabe in 15-Minuten-Intervallen beurteilt, danach bis zur 6. Stunde in halbstündigen Intervallen. Die folgende Skala wurde benutzt.
Die Punktzahlen wurden errechnet alß Gesamtzahl pro 6 Stunden, dividiert durch die Zahl der Beobachtungen.
Der EDso-Wert ist die Dosis, bei der die Hälfte der maximal möglichen Punktzahl (5 Punkte multipliziert mit der Zahl der Beobachtungen) erreicht wird.

Tetrabenazin-Ptosis = experiment: Effect on tetrabenazine ptosis (TBZ method, Methode 1); type: in vivo, Maus; conditions: for ED50: Mus musculus
Method: Sechs männl. Tieren wird die entsprechende Menge eines Homogenats der jeweiligen Substanz in wäßriger Carboxymethylcellulose oder Methyl-hydroxyethylcellulose 30 Min. vor der Behandlung mit Tetrabenazin (40 mg/kg intraperitoneal) mit Schlundsonde gefüttert. […]

[1] = system: Tiermodelle, prädiktiv für antidepressive Wirkung beim Menschen; experiment: General pharmacological testing in animal models predictive of antidepressant action in man; type: in vivo; conditions: result in words
From the text: Bei der pharmakologischen Untersuchung des (+)-Enantiomeren der Verbindung der Formel I wurden unerwartet starke Wirkungen dieser Substanz in Tiermodellen, die als prädiktiv für antidepressive Wirkung beim Menschen gelten, gefunden.
Die pharmakologischen Prüfungen wurden mit bekannten Modellen, die als prädiktiv für antidepressive Wirkung beim Menschen gelten, durchgeführt. Das sind beispielsweise: die Beeinflussung der Tetrabenazin-Ptosis bei der Maus und die Potenzierung der Yohimbin-Toxizität bei Mäusen. Als weiteres Beurteilungskriterium wurde beispielsweise die Prüfung der Auslösung von Stereotypien an Ratten herangezogen.

[2] = system: Aufnahme von 14C-Noradrenalin in Synaptosomen; experiment: Inhibition of noradrenaline reuptake in synaptosomes (Methode 4); type: biochemical, Ratte; conditions: 50 % inhibition of 14C-noradrenaline uptake, 37 °C, 4 min
Method: Synaptosomen aus Rattenhirn werden nach der Methode von Whittaker (Handbook of Neurochemistry 2 , 327-364, Editor A. Lajtha; London and New York, 1969) isoliert und die Monoamin-Aufnahme nach der Methode von Schacht und Heptner gemessen (Biochemical Pharmac. 23 , 3413-3422). Die 14C Noradrenalin-Aufnahme wurde in einem Krebs-Henseleit-Bikarbonatpuffer pH 7,4, der 11 Millimol Glucose enthielt, gemessen. 2,5 ml der Synaptosomen-Suspension wurden mit markiertem Noradrenalin bei 37 ° C inkubiert in Gegenwart von oder ohne Testsubstanz. Die Inkubationszeit betrug 4 Minuten. Die weitere Aufnahme wurde dann durch Abkühlen mit Eis gestoppt. Um nichtspezifische Adsorptionen auszuschließen, wurden Kontrollproben bei 0 ° C unter sonst gleichen Bedingungen inkubiert.
Die aufgenommenen Noradrenalinmengen wurden mit Hilfe der Membranfiltrationstechnik mit einem Millipore Sampling Manifold mit Cellulosenitratfiltern von 25 mm Durchmesser und 0,6 Mikrometer Porengröße gemessen. Die Synaptosomen wurden unter vermindertem Druck gesammelt und die Radioaktivität in einem Packard-Tricarb-Scintillationszähler bestimmt. Die Menge an angesammeltem Noradrenalin wurde angegeben als Prozent Radioaktivität, die zur Inkubationsmischung zugesetzt wurde.
Die ICso-Werte (inhibitory concentration) der nachstehenden Tabellen geben die Konzentrationen der Testsubstanzen an, welche die Aufnahme von ^14C-Noradrenalin zu 50 % hemmen.

[3] = system: Tiermodelle, prädiktiv für antidepressive Wirkung beim Menschen; conditions: as named in Deutsche Patentanmeldung P 36 28 545.5; cited from earlier work
[4] = Methode 1, mouse, p.o., 30 min before tetrabenazine 40 mg/kg i.p., confidence limits in brackets, repeated determinations, read-out: ED50, mg/kg p.o. (Vertrauensgrenzen)
[5] = Methode 1, mouse, 30 min before tetrabenazine 40 mg/kg i.p., confidence limits in brackets, repeated determinations
[6] = read-out: ED50, mg/kg p.o. (Vertrauensgrenzen), Methode 1, mouse, 30 min before tetrabenazine 40 mg/kg i.p., confidence limits in brackets, repeated determinations

Compound	LD50, mg/kg p.o. (Yohimbin-Toxizität)	keine Stereotypien bis (Stereotypien)	ED50; mg/kg p.o. (Vertrauensgrenzen) (Tetrabenazin-Ptosis; [5])	ED50 (Tetrabenazin-Ptosis; [6])	also measured
CCCC(C)(C)C(O)C(c1ccc(-c2ccccc2)cc1)n1ccnc1 (stereo not drawn)	24,5 mg/kg	keine Stereotypien	–	–	–
OC(C(c1cccc(Cl)c1)n1ccnc1)C12CC3CC(CC(C3)C1)C2 (stereo not drawn)	8,5 mg/kg	> 30 mg/kg	–	–	ED50 (Tetrabenazin-Ptosis; [4]): 3.7 mg/kg
Cc1cccc(C(n2ccnc2)C2(O)C3CC4CC(C3)CC2C4)c1 (single isomer, unassigned; (+)) [Beispiel 1]	2,9 (0,2 - 41,3) mg/kg	keine Stereotypien bis 100 mg/kg p.o.	1,2 (0,3 - 3,5) mg/kg and 1,9 (1,0 - 3,5) mg/kg and 1,4 (0,7 - 2,7) mg/kg	1.3 mg/kg and 1.75 mg/kg	LD50 umgerechnet (F:O,68) auf äquimolare Menge Base (nach Beispiel 2) (Yohimbin-Toxizität; p.o., tested as hydrogentartrate, converted to equimolar amount of base, 1080 min): 2,0 (0,1 - 28,1) mg/kg
C=CCC1(C(O)C(c2cccc(Cl)c2)n2ccnc2)CCCCC1 (stereo not drawn)	–	–	6,1 (0,5-72,9) mg/kg	3.9 mg/kg	–
OC1(C(c2ccc3ccccc3c2)n2ccnc2)C2CC3CC(C2)CC1C3 (stereo not drawn)	3,2 mg/kg	–	–	3 mg/kg	–
COc1ccc(C(n2ccnc2)C2(O)C3CC4CC(C3)CC2C4)cc1OC (stereo not drawn)	3,0 mg/kg	–	–	3 mg/kg	–
OC1(C(c2cccc(Cl)c2)n2ccnc2)C2CC3CC(C2)CC1C3 (single isomer, unassigned; (+)) [(+)-(2-Hydroxy-2-adamantyl)-1-imidazolyl-(3-chlorphenyl)-methan]	–	–	–	–	pharmakologische Wirkung [1]: geringere Wirkung
OC1(C(c2cccc(Cl)c2)n2ccnc2)C2CC3CC(C2)CC1C3 (single isomer, unassigned)	8,5 (0,5-130) mg/kg	> 30 mg/kg	2,3 (0,9-5,8) mg/kg	2.9 mg/kg	LD50, mg/kg p.o. (Yohimbin-Toxizität; 1080 min): 4,6 mg/kg; IC50 [2]: 0.12 µM
Cc1cccc(C(n2ccnc2)C2(O)C3CC4CC(C3)CC2C4)c1 (single isomer, unassigned; enantiomere) [(-)-Enantiomere der Verbindung I]	–	–	–	–	pharmakologische Wirkung [1]: pharmakologisch unwirksam
CC(C)(C)C(O)C(c1ccc(-c2ccccc2)cc1)n1ccnc1 (stereo not drawn)	5,3 mg/kg	> 30 mg/kg	–	–	ED50 (Tetrabenazin-Ptosis; [4]): 3 mg/kg; IC50 [2]: > 1 µM
OC1(C(c2cccc(Cl)c2)n2ccnc2)C2CC3CC(C2)CC1C3 (stereo not drawn)	4,4 mg/kg	> 300 mg/kg	–	–	–
Cc1cccc(C(n2ccnc2)C2(O)C3CC4CC(C3)CC2C4)c1 (stereo not drawn) [drawing 18]	7,1 mg/kg	> 30 mg/kg	1,7 (0,5-5,9) mg/kg	1.5 mg/kg	IC50 [2]: 0.12 µM
Cc1cccc(C(n2ccnc2)C2(O)C3CC4CC(C3)CC2C4)c1 (stereo not drawn) [(2-Hydroxy-2-adamantyl)-1-imidazolyl-3-tolyl-methan]	–	–	–	–	antidepressive Wirkung in prädiktiven Tiermodellen [3]: antidepressiv wirksam

— patent EP0421199A2, “(+)-(2-Hydroxy)-2-adamantyl)-1-imidazolyl-3-tolyl-methane and its salts, process for its preparation, medicine containing this compound and its use” (HOECHST AKTIENGESELLSCHAFT, priority 1989, dated 1991)
